Measured values from patent US9249128B2 (priority 2010, dated 2016).
Where two headings read alike, the source gives them in different places.

Legend:
[1] = molecular target: T1, FAAH (Mus musculus, UniProt O08914); assay: Competitive ABPP of FAAH in mouse brain proteome; type: biochemical; conditions: gel-based competitive ABPP, 10 μM inhibitor
T1 construct: from tissue; host or cells: mouse brain
T1 sequence (O08914 1-579): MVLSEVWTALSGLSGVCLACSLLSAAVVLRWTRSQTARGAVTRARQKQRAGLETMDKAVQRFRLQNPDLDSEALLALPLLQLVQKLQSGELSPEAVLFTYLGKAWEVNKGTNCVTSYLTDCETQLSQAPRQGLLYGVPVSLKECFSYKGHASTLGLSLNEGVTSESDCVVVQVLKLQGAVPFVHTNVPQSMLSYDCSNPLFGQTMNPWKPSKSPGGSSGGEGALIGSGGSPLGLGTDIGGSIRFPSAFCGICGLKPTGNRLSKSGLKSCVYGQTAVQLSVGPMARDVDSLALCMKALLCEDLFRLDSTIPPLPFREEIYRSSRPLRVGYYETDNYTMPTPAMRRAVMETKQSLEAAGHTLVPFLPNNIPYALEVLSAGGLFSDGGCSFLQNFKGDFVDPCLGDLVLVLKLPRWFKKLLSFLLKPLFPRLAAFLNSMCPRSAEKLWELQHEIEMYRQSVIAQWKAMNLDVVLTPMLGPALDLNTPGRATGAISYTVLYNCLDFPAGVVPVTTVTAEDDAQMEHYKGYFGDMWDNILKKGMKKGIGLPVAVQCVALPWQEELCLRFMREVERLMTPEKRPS
Protocol: (§1) For ABPP experiments, cell lysate and tissue proteomes were treated with 1 μM FP-rhodamine for 30 min at room temperature (50 μL total reaction volume) as described previously (Nomura et al., 2010). Reactions were quenched with one volume of standard 4×SDS/PAGE loading buffer (reducing), separated by SDS/PAGE (10% acrylamide), and visualized in-gel with a Hitachi FMBio IIe flatbed fluorescence scanner (MiraiBio). Inhibitors were preincubated prior (30 min or 4 h at 37° C. in vitro or in situ, respectively) to the addition of FP-rhodamine.

[2] = tested on: serine hydrolase activities detected in PC3 cells; assay: Competitive ABPP-MudPIT of PC3 cells treated in situ; type: cell-based, human; conditions: 1 uM in situ treatment, 4 hr; >30 serine hydrolase activities detected in PC3 cells
Protocol: (§2) Inhibitors were dissolved in DMSO and diluted into media or buffer prior to cell or proteome treatment, respectively. For in vitro treatment, final DMSO concentration was 4%. For in situ treatments of cells for ABPP, lipid measurements, migration, cell-survival, and invasion assays, 2×10^6 cells were seeded in 6 cm dishes (˜100% confluency) 24 h prior to inhibitor pre-treatment (in DMSO at 0.1% final concentration) in serum-free media (3 mL) for the designated time before harvesting cells for ABPP or lipid measurements or before the initiation of migration, cell-survival, and invasion assays.
Competitive ABPP-MudPIT experiments were performed as previously described (Nomura et al., 2010). Briefly, 1 mg of proteome was labeled with 5 μM FP-biotin, followed by solubilization with 1% Triton X-100, denaturation by SDS and heating, avidin precipitation of labeled proteins, and on-bead tryptic digest. Tryptic peptides were then loaded on to a biphasic (strong cation exchange/reverse phase) capillary column and analyzed by two-dimensional liquid chromatography (2D-LC) separation in combination with tandem mass spectrometry using an Agilent 1100 LC system coupled with a ThermoFisher LTQ linear ion trap mass spectrometer. Spectral counts are reported as the average of three samples with the standard error of the mean (SEM).

[3] = tested on: PC3 tumor xenograft; assay: PC3 tumor xenograft growth in SCID mice; type: in vivo, mouse; conditions: 80 mg/kg, oral, daily, versus vehicle
Protocol: Human cancer xenografts were established by transplanting cancer cell lines ectopically into the flank of C.B17 SCID mice (Taconic Farms). Briefly, cells were washed two times with PBS, trypsinized, and harvested in serum-containing medium. Next, the harvested cells were washed two times with serum-free medium and resuspended at a concentration of 2.0×10^4 cells/μL and 100 μL was injected. Growth of the tumors was measured every 3 days with calipers. For chronic JW480 treatment studies, mice were treated with JW480 or vehicle once daily (at approximately the same time everyday) by oral gavage in PEG300 (4 μL/g mouse). The treatments were initiated immediately after ectopic injection of cancer cells.

[4] = molecular target: T2, KIAA1363 (Homo sapiens, UniProt Q6PIU2); assay: Gel-based competitive ABPP of living PC3 cells, in situ treatment; type: cell-based; design: PC3 cancer cells, which have high endogenous KIAA1363 levels; endogenous in cells; host or cells: PC3; conditions: for IC50: in situ treatment
T2 sequence (Q6PIU2 1-408): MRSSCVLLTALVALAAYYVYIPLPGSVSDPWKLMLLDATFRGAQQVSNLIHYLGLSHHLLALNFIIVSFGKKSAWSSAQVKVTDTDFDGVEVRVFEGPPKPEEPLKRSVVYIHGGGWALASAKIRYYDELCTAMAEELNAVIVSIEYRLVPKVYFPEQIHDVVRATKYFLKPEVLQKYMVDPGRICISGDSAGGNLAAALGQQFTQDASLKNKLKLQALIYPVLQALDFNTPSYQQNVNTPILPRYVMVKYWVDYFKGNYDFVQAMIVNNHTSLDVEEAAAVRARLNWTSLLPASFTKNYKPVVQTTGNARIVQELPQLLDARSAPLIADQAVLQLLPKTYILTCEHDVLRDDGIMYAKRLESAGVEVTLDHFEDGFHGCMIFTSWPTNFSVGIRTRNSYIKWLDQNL
Protocol: as §2, §1
JW576 was dissolved in DMSO and diluted into media or buffer prior to cell or proteome treatment, respectively. For in vitro treatment, final DMSO concentration was 4%. For in situ treatments of cells for ABPP, 2×10^6 cells were seeded in 6 cm dishes (100% confluency) 24 hr prior to JW576 pretreatment with or without JW480 (in DMSO at 0.1% final concentration) in serum-free media (3 ml) for the designated time before harvesting cells for ABPP.
For ABPP experiments, cell lysate and tissue proteomes were treated with 1 μM FP-rhodamine for 30 min at room temperature ([…]). Reactions were quenched with one volume of standard 4×SDS/PAGE loading buffer (reducing), separated by SDS/PAGE (10% acrylamide), and visualized in-gel with a Hitachi FMBio IIe flatbed fluorescence scanner (MiraiBio). For experiments involving a preincubation with JW576 in the presence or absence of the non-fluorescent competitor JW480, the reactions were prepared without FP-rhodamine. JW576 were added at the indicated concentration and incubated for the indicated time at 37° C. FP-rhodamine was then added and the reaction was carried out exactly as described above.

SMILES | Inhibition of FAAH / selectivity versus FAAH [1] | Off-target activity across serine hydrolases (ABPP-MudPIT) [2] | PC3 tumor growth [3] | Duration of in situ inhibition of KIAA1363 ([4]; JW480 1 μM, PC3 cells) | IC50 ([4]; PC3 cells, read-out: IC50 for KIAA1363, in situ (FIG. 3B)) [nM] | IC50 ([4]; presence or absence of 10% fetal calf serum, read-out: IC50 for KIAA1363 in living PC3 cells) [nM]
COc1ccc(CNC(=O)Oc2cccc3c2OC(C)(C)C3)cc1 [JW148, 2,2-dimethyl-2,3-dihydrobenzofuran-7-yl 4-methoxybenzylcarbamate] | good selectivity |  |  |  |  | 
CC(C)c1ccccc1OC(=O)NCCc1ccc2ccccc2c1 [JW480, 2-isopropylphenyl (2-(naphthalen-2-yl)ethyl)carbamate] |  | no off-target activity | significantly impaired | at least 48 hr | 6 | 6 to 12
